{"source": "patent EP1649856A2", "about": "“Use of pimecrolimus for selective immunomodulation” (Novartis AG, priority 2001, dated 2002)", "key": {"promoter for human IL-2": {"tested_on": "promoter for human IL-2", "assay": "IL-2 reporter gene assay", "format": "cell-based", "settings": "concentration required for 50% inhibition", "from_the_text": "This assay method is disclosed and enabled in U.S. Patent No. 5,897,990, which is hereby incorporated by reference in its entirety and for all purposes.\nThe cell line is preferentially a human T-cell or macrophage cell line, e.g., a Jurkat cell line, preferably selected for high native production of the desired gene product, for example, producing IL-2 in response to stimulation in the case of an IL-2 reporter gene assay. The reporter gene is any gene expressing a readily observable product, e.g., an enzyme marker such as β-galactosidase or luciferase, or any other suitable enzyme marker. For example, where the enzyme marker is β-galactosidase, the reporter gene is, e.g., a bacterial lacZ gene; where the enzyme marker is luciferase, the gene is, e.g., a Phorinus luciferase gene. Another suitable marker is the gene for the green fluorescent protein produced by the bioluminescent jellyfish, e.g., as described in Chalfie et al., Science, Vol. 263, pp. 802-805 (1994). The promoter gene is a promoter gene for a cytokine or protein for which transcription is stimulated or suppressed by the drug to be monitored.\nBlood samples from the patient are diluted, their effect on gene expression in the above described system is measured, and the assay is standardized using known concentrations of the immunosuppressive material."}, "in vivo": {"assay": "in vivo", "set-up": "species or system rats", "method": "In another study designed to explore the differences between pimecrolimus and FK506 and to determine whether these differences might be associated with a different tissue distribution, the exposure to pimecrolimus and FK506 in various organs after oral administration were measured. Animals received 2 oral doses of 25 mg/kg in an interval of 2 hours. […] Pimecrolimus was found consistently to have a higher skinlblood concentration ratio than FK506 (2 hours: 7.3 vs. 2.8; 6 hours: 13 vs. 1.6; 24 hours: 36 vs. 6.0). The AUC0-24h in skin calculated for pimecrolimus was twice as high as with FK506.\nThese distribution characteristics are relevant not only for oral, but also for topical application, as the compound enters systemic circulation after permeation through the skin."}, "[1]": {"tested_on": "allergic contact dermatitis (ACD)", "assay": "Mouse model of allergic contact dermatitis (ACD)", "format": "in vivo", "settings": "oral, same doses"}, "[2]": {"tested_on": "systemic immune responses", "assay": "Models of systemic immunosuppression (graft-versus-host reaction, antibody formation to sheep red blood cells, kidney transplantation)", "format": "in vivo, rats", "settings": "transplantation and vaccination models", "from_the_text": "Pimecrolimus (also called ASM981 and ELIDEL®) is an ascomycin macrolactam-derivative with anti-inflammatory properties, chemical name is 33-epichloro-33-desoxy-ascomycin. Pimecrolimus is an ascomycin macrolactam-derivative developed originally for topical and oral treatment of inflammatory skin diseases such as atopic dermatitis and psoriasis. Pimecrolimus binds to macrophilin-12 and inhibits the Ca-dependent phosphatase calcineurin. As a consequence, it inhibits T cell activation and blocks the transcription and release of both Th1 and Th2 inflammatory cytokines. […] Tachyphylaxis has not been observed."}, "[3]": {"tested_on": "SCID mice reconstituted with CD4^+CD45RB^HI T cells", "assay": "SCID-IBD mouse model, delayed treatment of established IBD", "format": "in vivo", "settings": "100 mg/kg/day p.o. started after 7, 14 or 21 days, until 41 days", "method": "In order to determine if pimecrolimus is also effective once IBD is established, SCID mice were treated with pimecrolimus at a dose level of 100 mg/kg/day at days 7, 14 or 21 following the transfer of the disease causing CD4^+ T cells. The study was terminated after 41 days, i.e., the mice were treated for 33, 26 and 19 days, respectively.\nSCID mice were reconstituted with 2 x 10^5 CD4^+CD45RB^HI T cells and treatment with pimecrolimus (100 mg/kg/day p.o.) started after 7, 14 or 21 days and continued daily until 41 days. Treatment with the placebo formulation started after 7 days. BW was monitored once a week for the first 2 weeks and then twice weekly. Data are expressed as mean percent BW relative to the weight on day 0 ± s.e.m. for n = 9 (PBS), n = 8 (ASM(7d) & ASM(21d) and n = 7 (ASM(14d) and placebo) mice per group. PBS refers to the non-transferred mice which have been pooled with regard to percent BW values since no treatment dependent changes were found. p<0.01 relative to the placebo-treated group at 41 days.\nSCID mice were reconstituted with 2 x 10^5 CD4^+CD45RB^HI T cells and treatment with pimecrolimus (100 mg/kg/day p.o.) started after 7, 14 or 21 days and continued daily until 41 days. Treatment with the placebo formulation started after 7 days. On day 41, mice were killed and serum kept for haptoglobin assay. Data are expressed as mean haptoglobin (mg/mL) ± s.e.m. for n = 9 (PBS), n = 8 (ASM(7d)) and n = 7 (ASM(14d), ASM(21d) and placebo) mice per group. […]\nSCID mice were reconstituted with 2 x 10^5 CD4^+CD45RB^HI T cells and treatment with pimecrolimus (100 mg/kg/day p.o.) started after7, 14 or 21 days and continued daily until 41 days. […] Data are expressed as the mean neutrophil numbers, calculated from the percent positive cells and the total cell number per sample, ± s.e.m. for n mice (n in each bar) per group. p<0.05 calculated relative to the placebo-treated group."}}, "note": "“Also recorded” adds a separate entry of the source.", "data": [{"compound": "CC[C@@H]1/C=C(\\C)C[C@H](C)C[C@H](OC)[C@H]2O[C@@](O)(C(=O)C(=O)N3CCCC[C@H]3C(=O)O[C@H](/C(C)=C/[C@@H]3CC[C@H](Cl)[C@H](OC)C3)[C@H](C)[C@@H](O)CC1=O)[C@H](C)C[C@@H]2OC", "note": "[pimecrolimus, 33-epichloro-33-desoxy-ascomycin]", "values": [{"measurement": "IC50", "setting": "promoter for human IL-2", "result": 1.5, "unit": "nM"}, {"measurement": "AUC0-24h in skin compared with FK506", "setting": "in vivo; 2 oral doses of 25 mg/kg", "result": "twice as high"}, {"measurement": "exposure in all other tissues, including blood, lymph nodes and kidney, compared with FK506", "setting": "in vivo; 2 oral doses of 25 mg/kg", "result": "lower"}, {"measurement": "Kp at 2 h", "setting": "in vivo; rat, skin, 2 oral doses of 25 mg/kg in an interval of 2 hours, 2 hours after the last dosing, read-out: skinlblood concentration ratio", "result": 7.3}, {"measurement": "Kp at 6 h", "setting": "in vivo; rat, skin, 2 oral doses of 25 mg/kg in an interval of 2 hours, 6 hours after the last dosing, read-out: skinlblood concentration ratio", "result": 13}, {"measurement": "Kp at 24 h", "setting": "in vivo; rat, skin, 2 oral doses of 25 mg/kg in an interval of 2 hours, 24 hours after the last dosing, read-out: skinlblood concentration ratio", "result": 36}, {"measurement": "efficacy compared with FK506", "setting": "[1]", "result": "equipotent"}, {"measurement": "systemic immunosuppressive effect compared to CyA and FK506", "setting": "[2]", "result": "only a low potential to impair systemic immune responses; also recorded: minimal immunosuppressive effects"}, {"measurement": "acute phase response (serum haptoglobin) in established IBD", "setting": "[3]", "result": "inhibits the ongoing acute phase response"}, {"measurement": "blood and spleen neutrophilia in established/ongoing colitis", "setting": "[3]", "result": "strongly inhibits"}, {"measurement": "loss of BW in established/ongoing colitis", "setting": "[3]", "result": "highly-effective in reversing the loss of BW"}]}]}
